According to patent US20250389737A1, “FACTOR Xa REAGENT” (Instrumentation Laboratory Company, priority 2024, published 2025):
Counter-ions that a name gives are not always drawn.

Assays:
factor Xa [1] = molecular target: T1, factor Xa (Homo sapiens, UniProt P00742); experiment: chromogenic assay of the effects of guanidine sulfate and alkylated guanidines on factor Xa activity (FIG. 4); type: biochemical; details: 6 nkat/mL factor Xa in 20 mM HEPES pH 7.5, 1.5 mM substrate S-2732, mAbs/min at 405 nm, dilution series in water
T1 sequence (P00742 235-488 limits assumed): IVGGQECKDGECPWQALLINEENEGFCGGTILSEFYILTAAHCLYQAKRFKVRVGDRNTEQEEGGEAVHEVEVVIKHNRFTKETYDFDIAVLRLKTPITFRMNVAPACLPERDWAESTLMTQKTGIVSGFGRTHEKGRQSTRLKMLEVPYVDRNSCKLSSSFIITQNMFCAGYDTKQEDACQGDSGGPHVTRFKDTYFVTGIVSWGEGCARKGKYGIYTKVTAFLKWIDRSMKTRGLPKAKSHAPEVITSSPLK
T1 sequence (P00742 41-179 partner limits assumed): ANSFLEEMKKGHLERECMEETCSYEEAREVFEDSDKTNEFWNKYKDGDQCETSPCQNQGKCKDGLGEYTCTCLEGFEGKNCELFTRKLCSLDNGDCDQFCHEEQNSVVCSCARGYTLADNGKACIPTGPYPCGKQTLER
Experimental: In this experiment, the effects of guanidine sulfate and the guanidine derivatives: 1-methylguanidine sulfate, 1,1-dimethylguanidine sulfate, 1,1-diethylguanidine, and N-benzyl, N-methylguanidine sulfate were analyzed using a chromogenic assay. A number of dilutions were prepared in water with guanidine or a guanidine derivative of the type described herein. 40 μL of each of the guanidine or guanidine derivatives were mixed for 20 s to 60 s with 40 μL of 6 nkat/mL factor Xa diluted in 20 mM HEPES, pH 7.5 buffer. After an incubation period of 150 s to 180 s, 100 μL of the factor Xa chromogenic substrate S-2732™ (1.5 mM) was added to each of the guanidine and factor Xa mixtures and each mixture was chromogenically measured at 405 nm mAbs/min after a 20 s delay.

factor Xa [2] = molecular target: T1, factor Xa; details: 6 nkat/mL factor Xa in 20 mM Hepes pH 7.5, 1.5 mM substrate S-2732, 37° C., mAbs/min at 405 nm, concentrations in mM
Experimental: In this experiment, activity of factor Xa in the presence of guanidine sulfate and its derivatives (e.g., 1-methylguanidine sulfate, 1,1-dimethylguanidine sulfate, 1,1-diethylguanidine, N-benzyl, N-methylguanidine sulfate, 1,1,3,3-tetramethylgunidine and 1,1-dimethylbiguanide HCl) was evaluated using a chromogenic assay. In the experiment, each guanidine derivative was dissolved in deionized (DI) water to a final concentration of 100 mM. A number of such guanidine dilutions were prepared. Guanidine derivative levels in the solutions were tested in triplicate at 37° C. as follows: 40 μL (microliters) of each guanidine derivative level was incubated for 20 seconds(s) to 60 s before 40 μL of 6 nkat/mL factor Xa in 20 mM Hepes pH 7.5 buffer was added to the reaction. After an incubation period of 150 s to 180 s, 100 μL of 1.5 mM factor Xa chromogenic substrate S-2732™ was added to the reaction and milli-absorbance per minute (mAbs/min) at 405 nm (nanometers) was measured after a 20 s delay.

factor Xa [3] = molecular target: T1, factor Xa; experiment: substrate turnover rates at different factor Xa levels, 1,1-dimethylguanidine compared with NaCl (FIG. 6); type: biochemical; details: 22 mM 1,1-dimethylguanidine vs 33 mM NaCl, 1.5 mM S-2732, 37° C., 405 nm
Experimental: Guanidine derivatives modulate factor Xa enzymatic activity in a reaction, as explained previously, thereby slowing-down the reaction. As a result, greater amounts and/or concentrations of factor Xa can be used in a reaction when a guanidine derivative is incorporated into the reaction. In this experiment, factor Xa levels were tested in a reaction in triplicate at 37° C. as follows: 40 μL of factor Xa was incubated for 20 s to 60 s before 40 μL of 100 mM 1,1-dimethylguanidine or 150 mM NaCl in water was added to the reaction. After an incubation period of 150 s to 180 s, 100 μL of 1.5 mM factor Xa chromogenic substrate S-2732™ was added to the reaction and mAbs/min at 405 nm was measured after a 20 s delay. In FIG. 6, substrate turnover rates (e.g., coloring of the substrate) in the presence of 22 mM 1,1-dimethylguanidine 601 were compared to substrate turnover rates in the presence of 33 mM NaCl 602. As evident from FIG. 6, greater amounts and/or concentrations of factor Xa can be added to the reaction in the presence of 1,1-dimethylguanidine to produce the same substrate turnover rates relative to NaCl. […] Greater amounts and/or concentrations of factor Xa facilitate detection of factor Xa inhibitors or reversal of such inhibitors in an assay, as noted previously.

factor Xa [4] = molecular target: T1, factor Xa; experiment: chromogenic factor Xa activity in a plasma sample containing dimethylguanidine, 9:1 sample to factor Xa ratio (FIG. 7); type: biochemical; details: 50 mM vs 25 mM dimethylguanidine, 1.5 mM S-2732, 37° C.
Experimental: In this experiment, 180 μL of a plasma sample containing dimethylguanidine (DMG) and 1.5 mM substrate S-2732™ were mixed with 20 μL of factor Xa (a 9:1 sample to factor Xa ratio). The activity of factor Xa was determined at 37° C. based on chromogenic activity of the substrate. The activity of factor Xa linearly correlates with the factor Xa concentration in the presence of dimethylguanidine. […] Thus, increasing the amount of dimethylguanidine in a sample reduces a rate of the reaction. In some implementations, dimethylguanidine can be added to a reaction at a concentration of up to about 500 mM.

SMILES | extent of factor Xa inhibition (factor Xa [1]) | factor Xa activity plotted against guanidine derivative or NaCl concentration (factor Xa [2]) | further results
CCN(CC)C(=N)N.O=S(=O)(O)O [1,1-diethylguanidine sulfate] | largest extent of factor Xa inhibition |  | 
CN(C)C(=N)NC(=N)N [1,1-dimethyl-biguanide, reference compound] |  | modulate factor Xa dose-dependently, although less than 1-methylated guanidine sulfate | 
CN(C)C(=N)N.O=S(=O)(O)O [1,1-dimethylguanidine sulfate] | largest extent of factor Xa inhibition |  | 
CN(C)C(=N)N [1,1-dimethylguanidine] |  |  | substrate turnover rates (reaction rate) relative to NaCl (factor Xa [3]): slowed-down; rate of the factor Xa reaction (chromogenic activity) (factor Xa [4]): slows reaction of the factor Xa in a sample greater than 25 mM of dimethylguanidine
CNC(=N)N [1-methylguanidine sulfate] | reduced factor Xa inhibition as compared to the factor Xa inhibition of mixtures containing dialkylated guanidine derivatives | modulates factor Xa dose-dependently | 
CN(Cc1ccccc1)C(=N)N.O=S(=O)(O)O [N-benzyl N-methylguanidine sulfate] | reduced factor Xa inhibition as compared to the factor Xa inhibition of mixtures containing dialkylated guanidine derivatives |  | 
[Cl-].[Na+] [NaCl, reference compound] |  | activates factor Xa activity | 
N=C(N)N [guanidine sulfate] | least amount of reduction in factor Xa inhibition | modulate factor Xa dose-dependently, although less than 1-methylated guanidine sulfate | 
